What was measured:
PAD1 [1] = target: T1, PAD1 (Homo sapiens, UniProt Q9ULC6); assay: Target engagement assay: labelling of PAD1 in HEK293TPAD1 cells with 21 in the presence of inhibitor; assay type: cell-based; conditions: 5 μM of 21, 3 h, read-out: EC50 of inhibition of labelling of PAD1 by 21
T1 construct: made in house
T1 sequence (Q9ULC6 1-663): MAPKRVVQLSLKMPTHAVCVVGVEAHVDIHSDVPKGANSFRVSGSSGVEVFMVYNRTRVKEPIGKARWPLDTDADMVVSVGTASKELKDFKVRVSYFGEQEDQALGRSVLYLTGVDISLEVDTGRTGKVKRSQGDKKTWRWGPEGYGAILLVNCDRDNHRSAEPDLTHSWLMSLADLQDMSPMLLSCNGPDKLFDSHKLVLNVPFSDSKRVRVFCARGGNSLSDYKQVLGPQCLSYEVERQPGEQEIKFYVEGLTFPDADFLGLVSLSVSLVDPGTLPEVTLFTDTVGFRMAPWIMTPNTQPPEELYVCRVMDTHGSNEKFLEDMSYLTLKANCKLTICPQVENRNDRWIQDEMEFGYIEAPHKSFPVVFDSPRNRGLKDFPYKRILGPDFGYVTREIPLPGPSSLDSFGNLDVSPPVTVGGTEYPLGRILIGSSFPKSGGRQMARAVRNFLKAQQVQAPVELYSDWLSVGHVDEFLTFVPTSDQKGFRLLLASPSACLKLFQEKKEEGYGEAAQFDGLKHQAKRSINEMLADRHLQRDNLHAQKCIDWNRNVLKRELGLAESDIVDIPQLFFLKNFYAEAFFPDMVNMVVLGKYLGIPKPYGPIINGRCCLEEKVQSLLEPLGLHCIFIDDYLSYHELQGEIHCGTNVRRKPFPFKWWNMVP
Method: Target Engagement Assay—Labelling of PAD1 in HEK293TPAD1 cells with 21 in the presence of 1. This study followed a similar procedure to that described for the dose-dependent labelling of PAD1 in HEK293TPAD1 cells with 21. Briefly, HEK293TPAD1 cells were treated with 1 mM CaCl2, 5 μM ionomycin, 5 μM of 21, and increasing concentrations (0-50 μM) of 1 in serum-free DMEM for 3 h. Cells were scraped, harvested by centrifugation at 3,000 rpm for 5 min and resuspended in 1×PBS. Lysis was carried out by sonicating the cells with a probe sonicator and lysates were clicked with TAMRA-N3 in the presence of TCEP, TBTA and CuSO4 as described above. Protein bands were separated by SDS-PAGE and were visualized by recording in-gel fluorescence. […] All the experiments were performed at least in duplicate.

PAD1 [2] = target: T1, PAD1; assay: Limit of detection of PAD1 labelling in HEK293TPAD1 cells by probe; assay type: cell-based; conditions: 5 μM probe, 3 h; calculated from PAD1 content 0.06% of the total protein
Method: FIG. 16. (A) Time-dependent labelling of PAD1 in HEK293TPAD1 cells by 21. HEK293TPAD1 cells were treated with 21 (5 μM) in serum-free DMEM for various times. After the treatment, cells were harvested and flash-frozen in liquid nitrogen. Cell lysates were treated with TAMRA-N3, TCEP, TBTA and CuSO4 for 2 h at room temperature. Time-dependent labelling of PAD1 by 21 was recorded on a Typhoon scanner. (B) Limit of detection of PAD1 in HEK293TPAD1 cells by 21. For this study, cells were treated with 5 μM of 21 in serum-free DMEM for 3 h and decreasing amounts (indicated by total protein content) of lysates were clicked with TAMRA-N3 in the presence of TCEP, TBTA and freshly prepared CuSO4. […] F stands for fluorograph.
Dose-dependent Labelling of PAD1 in HEK293TPAD1 cells with 21. HEK293TPAD1 cells were plated in 6-well plates at a density of ˜1×10^6 cells/well and were allowed to grow in DMEM (supplemented with 10% heat-inactivated fetal bovine serum, 100 units/mL penicillin, 100 μg/mL streptomycin and 0.15 mg/mL hygromycin B) for 12 h. […] Soluble proteins in the lysate were quantified by DC-assay (Bio-Rad). […] Protein bands were visualized by recording in-gel fluorescence using a typhoon scanner (approximate excitation/emission maxima ˜546/579, respectively). […]

EC50 (PAD1 [1]) [µM]	LOD of PAD1 in HEK293TPAD1 cells (PAD1 [2]) [pmol]	Structure (SMILES)
12.7	–	N=C(CF)NCCC[C@H](NC(=O)c1cc(I)cc(I)c1O)c1nc2ccccc2[nH]1 [Compound 1]
–	72	C#Cc1c(I)cc(C(=O)N[C@@H](CCCNC(=N)CF)c2nc3ccccc3[nH]2)c(O)c1I [Compound 21]

From patent publication US12448358B2, “Inhibitors of protein arginine deiminase 1 and methods of preparation and use thereof” (University of Massachusetts, priority 2019, dated 2025)
